Laboratory results from patent publication US12129265B2, “Therapeutic agents and uses thereof” (Ankh Life Sciences Limited, priority 2020, dated 2024).
Where two headings read alike, the source gives them in different places.

Columns and labels:
Assay in all cases: CellTiter-Glo in vitro cell proliferation assay, Example 8
Assay type in all cases: cell-based, Human
[1] = system: A2780 cells; conditions: A2780, Ovarian, read-out: Mean IC50
Method: (§1) In this Example, in vitro cell proliferation assays were performed using: (1) Human Myeloma tumor cell lines; (2) Human Lymphoma tumor cell lines; (3) Solid Human tumor cell lines; and (4) Parental, Lenalidomide resistant and Bortezomib resistant Jeko-1 Mantle cell Lymphoma tumor cell lines. The compounds tested were three diharmaline compounds, namely the 518B562 (or simply 562), 560, and 561 compounds. In addition, a monoharmaline product designated as 518F014 was also tested. This monoharmaline product had the following structure:
(§2) Each proliferation assay was carried out as follows. The test cells were plated in growth media using a 384-well microtiter plate at 50 μL volume. The cells were incubated for 24 hours at 37° C. in a humidified incubator. After 24 hours of incubation, the test compounds were added to the test wells in DSMO solvent, at concentrations ranging from 0.0075-100 μM. Control wells received equal volumes of DSMO, without compound. Following drugging, the cells were incubated for 72 hours at 37° C. in a humidified incubator. After this exposure, 100 μL of a 1:1 mixture of sterile water and CellTiter-Glo® reagent (Promega) was added to each well. The plates were then incubated for 60 minutes at room temperature, followed by recording the luminescence value of each well using a luminometer as a measure of cell proliferation.

[2] = system: ASPC-1 cells; conditions: ASPC-1, Pancreatic, read-out: Mean IC50
Method: as §1, §2

[3] = system: DOHH-2 cells; conditions: DoHH-2, GCB-DLBCL, read-out: Mean IC50
Method: as §1, §2

[4] = system: FaDu cells; conditions: H&N - SC, read-out: Mean IC50
Method: as §1, §2

[5] = system: JIM1 cells; conditions: JIM1, HMCL, read-out: Mean IC50
Method: as §1, §2

[6] = system: KMM-1 cells; conditions: KMM-1, HMCL-A, read-out: Mean IC50
Method: as §1, §2

[7] = system: L363 cells; conditions: L363, PCL/MM, read-out: Mean IC50
Method: as §1, §2

[8] = system: MIA PaCa-2 cells; conditions: MIA PaCa-2, Pancreatic, read-out: Mean IC50
Method: as §1, §2

[9] = system: A2780CP cells; conditions: Ovarian, read-out: Mean IC50
Method: as §1, §2

[10] = system: AN3CA cells; conditions: Endometrial, read-out: Mean IC50
Method: as §1, §2

[11] = system: BxPC-3 cells; conditions: BxPC-3, Pancreatic; read-out: Mean IC50
Method: as §1, §2

[12] = system: KMS-34 cells; conditions: KMS-34, HMCL-B; read-out: Mean IC50
Method: as §1, §2

[13] = system: MDA-MB-231 cells; conditions: MDA-MB-231, TNBC; read-out: Mean IC50
Method: as §1, §2

[14] = system: MDA-MB-468 cells; conditions: MDA-MB-468, TNBC; read-out: Mean IC50
Method: as §1, §2

[15] = system: MOLP-8 cells; conditions: MOLP-8, MM IgD; read-out: Mean IC50
Method: as §1, §2

[16] = system: OCI-LY3 cells; conditions: OCI-LY3, ABC-DLBCL; read-out: Mean IC50
Method: as §1, §2

[17] = system: SiHA cells; conditions: Cervical - SC, read-out: Mean IC50
Method: as §1, §2

[18] = system: RPMI-8226 cells; conditions: RPMI-8226, HMM
Method: as §2
In this example, different cell lines were subjected to in vitro cell proliferation assays as described in Example 8. In particular, the cell lines are identified in the following Table 17, and the tissue types were: Pancreatic; Endometrial; Triple-Negative Breast Cancer (TNBC); Non-Small-Cell Lung Carcinoma (NSCLC); Ovarian; Renal Cell Carcinoma (RCC); Cervical-Squamous Cell; […] (H&N-Squamous Cell); Germinal Center B Cell-Like Novo Diffuse Large B-Cell Lymphoma (GCB-DLBCL); Activated B-Cell—Diffuse Large B Cell Lymphoma (ABC-DLBCL); Human Myeloma; Human Myeloma Cell Line Lymphocyte-Like; Human Myeloma Cell Line Lymphocyte-Like Myeloma Pleural Effusion Infiltration; Human Multiple Myeloma; Plasma Cell Leukemia/Multiple Myeloma Epstein-Barr Nuclear Antigen-Negative (EBNA-Negative) and to Express mRNA for Proto-Oncogene B-Cell Lymphoma 2 (BCL2); Multiple Myeloma from Peripheral Blood Type IgD Lmabda.

[19] = system: A498 cells; conditions: A498, RCC; read-out: Mean IC50
Method: as §1, §2

[20] = system: H1650 (EGFR mut) cells; conditions: NSCLC, read-out: Mean IC50
Method: as §1, §2

[21] = system: H1975 (EGFR mut) cells; conditions: NSCLC, read-out: Mean IC50
Method: as §1, §2

[22] = system: HCC70 cells; conditions: HCC70, TNBC; read-out: Mean IC50
Method: as §1, §2

[23] = system: HEC-1a cells; conditions: Endometrial, read-out: Mean IC50
Method: as §1, §2

SMILES | IC50 [9] [µM] | IC50 [10] [µM] | IC50 [11] [µM] | IC50 [3] [µM] | IC50 [4] [µM] | IC50 [5] [µM] | IC50 [6] [µM] | IC50 [12] [µM] | IC50 [7] [µM] | IC50 [13] [µM] | IC50 [14] [µM] | IC50 [8] [µM] | IC50 [15] [µM] | IC50 [16] [µM] | IC50 [18] [µM] | IC50 [1] [µM] | IC50 [19] [µM] | IC50 [2] [µM] | IC50 [20] [µM] | IC50 [22] [µM] | other results
COc1cc(C2CC3(CC4(NCCc5sccc54)C2C2=NCCc4sccc42)NCCc2sccc23)ccc1O (stereo not shown) [HRM05] |  |  |  |  |  |  |  |  |  |  |  |  |  |  |  |  |  |  |  |  | IC50 ([1]; Homo sapiens): 15.9 µM; IC50 ([2]; Homo sapiens, ASPC1): 20.2 µM; IC50 ([3]; Homo sapiens): 17.6 µM; IC50 ([4]; Homo sapiens): 14 µM; IC50 ([5]; Homo sapiens): 17.6 µM; IC50 ([6]; Homo sapiens): 12.5 µM; IC50 ([7]; Homo sapiens, L-363): 13.7 µM; IC50 ([8]; Homo sapiens): 12.2 µM
COc1ccc2c3c([nH]c2c1)C(CC(CC1=NCCc2c1[nH]c1cc(OC)ccc21)c1ccc(OC(C)=O)c(OC)c1)=NCC3 [compound 6] | 70.7 | 21.4 | 15.8 | 6.91 | 15.8 | 18 | 16.9 | 11 | 16.3 | 60.5 | 14.5 | 13.6 | 11.5 | 11.3 | 10.3 |  |  |  |  |  | IC50 [17]: 74.8 µM
COc1ccc(C(CC2=NCCc3c2[nH]c2cc(OC)ccc32)CC2=NCCc3c2[nH]c2cc(OC)ccc32)c(O)c1 [compound 8] | 49.8 | 20.2 | 21.9 | 6.37 | 16.1 | 14.3 | 13.2 | 11.1 | 12.6 | 24.4 | 8.45 | 24.2 | 10.1 | 11.3 | 11.5 | 18.7 | 78.7 | 55.6 | 59.9 | 24.9 | IC50 [21]: 55.1 µM; IC50 [23]: 65.8 µM
COc1ccc2c3c([nH]c2c1)C(CC(CC1=NCCc2c1[nH]c1cc(OC)ccc21)c1cc(Cl)c(O)c(OC)c1)=NCC3 [compound 9] | 60.3 | 29.3 | 30 | 9.76 | 72.3 | 40.6 | 16 | 11.4 | 19.7 | 45.8 | 12.7 | 52.6 | 6.59 | 11.9 | 11.5 | 35.7 |  | 70 | 79.7 | 39 | IC50 [21]: 54.6 µM; IC50 [23]: 95.6 µM
COc1ccc2c3c([nH]c2c1)C(CC(CC1=NCCc2c1[nH]c1cc(OC)ccc21)c1ccc(OC)c(Oc2ccccc2)c1)=NCC3 [compound 10] | 29.4 | 31.7 | 27.6 | 2.78 | 49.7 | 20.1 | 11.1 | 4.87 | 35.6 | 43.7 | 11.4 | 11.9 | 8.28 | 7.57 | 3.98 | 65 | 79.2 | 23.8 | 13.3 | 50.2 | IC50 [21]: 64 µM; IC50 [23]: 88.1 µM
COc1ccc2c3c([nH]c2c1)C(CC(CC1=NCCc2c1[nH]c1cc(OC)ccc21)c1ccc(OC)c(O)c1Br)=NCC3 [compound 13] | 23.4 | 7.82 | 16.6 | 6.52 | 13.5 | 11.5 | 13.1 | 11.1 | 12.9 | 25.8 | 12.6 | 15.8 | 11 | 11.7 | 9.1 | 11.8 | 91.6 | 82.5 | 21.2 | 28.5 | IC50 [21]: 14 µM; IC50 [23]: 17.4 µM
COc1ccc2c3c([nH]c2c1)C(CC(CC1=NCCc2c1[nH]c1cc(OC)ccc21)c1cccc(-c2ccccc2)c1)=NCC3 [compound 18] | 31.2 | 28.8 | 36.2 | 8.55 | 49.2 | 39.8 | 33.6 | 17.8 | 34.8 | 43.9 | 48.7 | 32.5 | 12.2 | 25 | 12.3 | 26.3 | 93.4 | 43.8 | 45.4 | 36.3 | IC50 [21]: 59.1 µM; IC50 [23]: 49.8 µM
C=C(C)C1CC=C(C(CC2=NCCc3c2[nH]c2cc(OC)ccc32)CC2=NCCc3c2[nH]c2cc(OC)ccc32)CC1 (stereo not shown) [compound 28] | 7.02 | 4.49 | 6.58 | 2.5 | 5.64 | 8.08 | 6.43 | 4.44 | 4.75 | 10.1 | 8.43 | 4.51 | 3.71 | 6.17 | 3.5 |  | 16.3 | 7.22 | 11.3 | 11.9 | IC50 [23]: 10.6 µM; IC50 [17]: 13.3 µM
COc1ccc2c3c([nH]c2c1)C(CC(CC1=NCCc2c1[nH]c1cc(OC)ccc21)c1ccc(C(C)C)cc1)=NCC3 [compound 29] | 11.5 | 8.07 | 11.5 | 2.09 | 11.4 | 16.6 | 7.71 | 4.4 | 11.4 | 13.9 |  | 11.3 | 5.89 | 9.63 | 4.44 | 12.1 | 42.5 | 10.8 | 13.9 | 40 | IC50 [21]: 13.6 µM; IC50 [17]: 46.9 µM
